Assay results: ChEMBL document CHEMBL5046276 (J Med Chem, 2022)
Blank lines part the entries; values can stand above or below the molecule they belong to. Activity calls are given as the source filed them. No cut-off for these calls is given here.

Assays:
[1] = Metabolic stability in mouse liver microsomes assessed as intrinsic clearance at […] incubated for 45 mins in presence of NADPH by LC/MS analysis; assay type: ADME, Microsome; conditions: read-out: CLH
[2] = Cytotoxicity against HEK293T cells incubated for 72 hrs by CCK-8 assay; conditions: human
Plasmodium falciparum [3] = assay: Antimalarial activity against asexual blood stage quinine-resistant Plasmodium falcipuram C2A assessed as parasite growth inhibition incubated for 72 hrs by SYBR Green I staining based fluorescence analysis; assay type: functional, organism-based
[4] = Selectivity index, ratio of IC50 for cytotoxicity against HEK293T cells to IC50 for antimalarial activity against asexual blood stage wild-type Plasmodium falciparum 3D7; assay type: toxicity, cell-based; conditions: human, read-out: Ratio IC50
Plasmodium yoelii [5] = assay: Antimalarial activity against blood stage Plasmodium yoelii infected in BALB/c mouse assessed as parasitemia at 60 mg/kg, ip qd for 5 days and measured after 16 days; assay type: functional; conditions: time 16 day
[6] = Metabolic stability in mouse liver microsomes assessed as half life at […] incubated for 45 mins in presence of NADPH by LC/MS analysis; assay type: ADME, Microsome; conditions: for t1/2: microsomes, 0.75 h, 10000 µM
Plasmodium yoelii [7] = assay: Antimalarial activity against blood stage Plasmodium yoelii infected in BALB/c mouse assessed as parasite killing by measuring RBC cells in blood smear at 60 mg/kg, ip qd for 5 days by microscopic analysis; assay type: functional, organism-based; conditions: Erythrocyte, time 5.0 day
Plasmodium falciparum [8] = assay: Antimalarial activity against asexual blood stage chloroquine-resistant Plasmodium falciparum Dd2 assessed as parasite growth inhibition incubated for 72 hrs by SYBR Green I staining based fluorescence analysis; assay type: functional, organism-based; conditions: Dd2, 72 h
Plasmodium falciparum [9] = assay: Antimalarial activity against asexual blood stage chloroquine-resistant Plasmodium falcipuram GB4 assessed as parasite growth inhibition incubated for 72 hrs by SYBR Green I staining based fluorescence analysis; assay type: functional, organism-based; conditions: GB4, 72 h
[10] = Selectivity index, ratio of IC50 for cytotoxicity against human HepG2 cells to IC50 for antimalarial activity against asexual blood stage wild-type Plasmodium falciparum 3D7; assay type: toxicity, cell-based; conditions: read-out: Ratio IC50
Plasmodium falciparum [11] = assay: Antimalarial activity against asexual blood stage wild-type Plasmodium falciparum 3D7 assessed as parasite growth inhibition incubated for 72 hrs by SYBR Green I staining based fluorescence analysis; assay type: functional, organism-based; conditions: 3D7, 72 h
Plasmodium falciparum [12] = assay: Antimalarial activity against asexual blood stage sulfadoxine-pyrimethamine/mefloquine-resistant Plasmodium falcipuram CP286 assessed as parasite growth inhibition incubated for 72 hrs by SYBR Green I staining based fluorescence analysis; assay type: functional, organism-based; conditions: CP286, 72 h
[13] = Cytotoxicity against human HepG2 cells incubated for 72 hrs by CCK-8 assay
Plasmodium yoelii [14] = assay: Antimalarial activity against blood stage Plasmodium yoelii infected in BALB/c mouse assessed as parasitemia at 60 mg/kg, ip qd for 5 days and measured after 14 days; assay type: functional; conditions: time 14 day
[15] = Toxicity in BALB/c mouse infected with blood stage Plasmodium yoelii assessed as animal death at 60 mg/kg, ip qd for 5 days and measured on day 28; assay type: organism-based; conditions: in vivo, 672 h, time 28 day
Plasmodium falciparum [16] = assay: Antimalarial activity against blood stage asynchronous Plasmodium falcipuram 3D7 assessed as suppression of parasite reproduction by measuring parasitemia at 10 nM incubated for 24 hrs followed by compound washout and replacement with fresh medium without compounds and measured after 4 days by flow cytometry; assay type: functional
[17] = In vivo inhibition of C-terminal glmS fused HDAC1 in Plasmodium falcipuram 3D7 assessed as inhibition of parasite growth incubated for 4 hrs followed by compound washout and replacement with fresh medium with compounds measured after 68 hrs by SYBR Green I staining based fluorescence analysis; assay type: functional, organism-based, Plasmodium falciparum
Plasmodium falciparum [18] = assay: (§1) Antimalarial activity against synchronized Plasmodium falcipuram 3D7 infected in human RBC assessed as irreversible inhibition of parasite growth at ring stage at 40 nM treated at 5 to 17 hpi incubated for 12 hrs followed by compound washout and replacement with fresh medium without compounds and measured after 4 days by flow cytometry; assay type: functional, organism-based
Plasmodium falciparum [19] = assay: Inhibition of Plasmodium falcipuram HDAC assessed as effect on parasite histone deacetylation level at 5 to 20 nM incubated for 4 hrs by Western blot analysis; conditions: dose 5-20 nM
Plasmodium falciparum [20] = assay: In vivo inhibition of C-terminal glmS fused HDAC2 in Plasmodium falcipuram 3D7 assessed as inhibition of parasite growth incubated for 4 hrs followed by compound washout and replacement with fresh medium with compounds measured after 68 hrs by SYBR Green I staining based fluorescence analysis; assay type: functional, organism-based
Plasmodium falciparum [21] = assay: as §1, with “schizont” for “ring”, “29” for “at 5”, “41” for “17”; assay type: functional, organism-based
Plasmodium falciparum [22] = assay: Antimalarial activity against synchronized Plasmodium falcipuram 3D7 infected in human RBC assessed as ring stage parasite killing at 40 nM treated […] and incubated for 12 hrs followed by compound washout and replacement with fresh medium without compounds and measured at 50 hrs post infection by Geimsa staining based microscopy; assay type: functional, organism-based
Plasmodium berghei = assay: Antimalarial activity against liver stage transgenic Plasmodium berghei ANKA sporozoites transfected with GFP-Luc infected in BALB/c mouse assessed as reduction in liver stage parasite infection at 30 mg/kg, iv measured for 1 to 4 days post-administration by IVIS spectrum in vivo imaging analysis; assay type: functional, organism-based; conditions: time 1-4 day
Plasmodium falciparum [23] = assay: In vivo inhibition of C-terminal TY1 fused HDAC1 in Plasmodium falcipuram 3D7 assessed as inhibition of parasite growth by measuring downregulation of RBC invasion-related genes expression level by RNA-seq analysis; assay type: functional, organism-based
[24] = Apparent clearance in BALB/c mouse at 5 mg/kg, ip measured after upto 24 hrs by LC-MS/MS analysis; assay type: ADME, organism-based; conditions: in vivo, read-out: CLz/F (converted)
[25] = Toxicity in BALB/c mouse infected with blood stage Plasmodium yoelii assessed as animal death at 60 mg/kg, ip qd for 5 days measured from day 2 post compound treatment; assay type: organism-based; conditions: in vivo, 120 h, time 5 day
[26] = Tmax in BALB/c mouse at 5 mg/kg, ip measured after upto 24 hrs by LC-MS/MS analysis; assay type: ADME, organism-based; conditions: in vivo
Plasmodium falciparum [27] = assay: Antimalarial activity against blood stage asynchronous Plasmodium falcipuram 3D7 assessed as parasite growth inhibition by measuring parasitemia at 10 to 100 nM incubated for 12 to 24 hrs by flow cytometry; assay type: functional, organism-based; conditions: dose 10-100 nM, time 12-24 hrs
Plasmodium yoelii [28] = assay: Antimalarial activity against blood stage Plasmodium yoelii infected in BALB/c mouse assessed as parasite recrudescence by measuring parasitemia at 60 mg/kg, ip qd for 5 days and measured on 11 to 26 days; assay type: functional; conditions: time 11-26 day
[29] = In vivo inhibition of C-terminal TY1 fused HDAC1 in Plasmodium falcipuram 3D7 assessed as inhibition of parasite growth incubated for 4 hrs followed by compound washout and replacement with fresh medium with compounds measured after 68 hrs by SYBR Green I staining based fluorescence analysis; assay type: functional, organism-based, Plasmodium falciparum
Plasmodium falciparum [30] = assay: In vivo inhibition of C-terminal TY1 fused HDAC2 in Plasmodium falcipuram 3D7 assessed as inhibition of parasite growth incubated for 4 hrs followed by compound washout and replacement with fresh medium with compounds measured after 68 hrs by SYBR Green I staining based fluorescence analysis; assay type: functional, organism-based
[31] = Cmax in BALB/c mouse at 5 mg/kg, ip measured upto 24 hrs by LC-MS/MS analysis; assay type: ADME, organism-based; parameters: route intraperitoneal, dose 5 mg/kg, time <=24; conditions: in vivo
Plasmodium falciparum [32] = assay: In vivo inhibition of C-terminal glmS fused HDAC1 in Plasmodium falcipuram 3D7 assessed as inhibition of parasite growth by measuring downregulation of RBC invasion-related genes expression level by RNA-seq analysis; assay type: functional, organism-based
[33] = Toxicity in BALB/c mouse infected with blood stage Plasmodium yoelii assessed as animal death at 30 mg/kg, ip qd for 5 days and measured upto 60 days; assay type: organism-based; conditions: in vivo, 1440 h, time 60 day
[34] = Apparent volume of distribution in BALB/c mouse at 5 mg/kg, ip measured after upto 24 hrs by LC-MS/MS analysis; assay type: ADME, organism-based; conditions: in vivo, read-out: Vz/F
Plasmodium falciparum [35] = assay: Antimalarial activity against blood stage asynchronous Plasmodium falcipuram 3D7 assessed as parasite growth inhibition by measuring parasitemia incubated for 6 to 12 hrs followed by compound washout and replacement with fresh medium without compounds and measured after 4 days by flow cytometry; assay type: functional, organism-based; conditions: dose 10-100 nM, time 6-12 hrs
Plasmodium falciparum [36] = assay: Inhibition of Plasmodium falcipuram recombinant HDAC1 using HDAC-Glo I/II as substrate at 50 to 800 nM preincubated for 90 mins by luminescence based microplate reader analysis; conditions: dose 50-800 nM
[37] = target: T1, NAD-dependent protein deacetylase sirtuin-2 (Homo sapiens, UniProt Q8IXJ6); assay: Inhibition of human C-terminal His-tagged SIRT2 (50 to 356 residues) expressed in Escherichia coli using Ac-peptide as substrate incubated for 4 hrs followed by trypsin addition and further incubated for 2 hrs
T1 sequence (Q8IXJ6 whole entry): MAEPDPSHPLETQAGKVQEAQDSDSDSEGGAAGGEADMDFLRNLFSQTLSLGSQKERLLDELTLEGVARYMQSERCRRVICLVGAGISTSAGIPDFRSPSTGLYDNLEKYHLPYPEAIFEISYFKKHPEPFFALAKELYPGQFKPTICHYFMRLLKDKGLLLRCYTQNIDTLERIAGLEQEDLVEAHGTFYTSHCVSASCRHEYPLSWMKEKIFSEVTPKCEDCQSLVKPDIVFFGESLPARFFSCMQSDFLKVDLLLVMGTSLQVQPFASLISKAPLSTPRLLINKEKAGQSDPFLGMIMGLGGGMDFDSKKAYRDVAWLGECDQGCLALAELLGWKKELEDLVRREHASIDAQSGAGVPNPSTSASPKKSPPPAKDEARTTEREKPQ

Structure (SMILES): Cl.Cn1c(CN2CC3(CCN(c4ncc(C(=O)NO)cn4)C3)C2)nc2ccccc21
CLint scaled [1]: 40.7 mL/min/kg
IC50 at 72 h [2]: 9330 nM
IC50 (Plasmodium falciparum [3]): 3.8 nM
selectivity ratio [4]: 5070
Activity (Plasmodium yoelii [5]): 16.57%
half-life ([6]; liver microsomes): 2.23 h
Activity (Plasmodium yoelii [7]): inactive
IC50 (Plasmodium falciparum [8]): 3.99 nM
IC50 (Plasmodium falciparum [9]): 4.64 nM
selectivity ratio [10]: > 5140
IC50 (Plasmodium falciparum [11]): 1.84 nM
IC50 (Plasmodium falciparum [12]): 9.87 nM
IC50 at 72 h [13]: > 9450 nM

Structure (SMILES): Cl.Cn1cc(CN2CC3(CCN(c4ncc(C(=O)NO)cn4)C3)C2)c2ncccc21
IC50 at 72 h [2]: > 20000 nM
IC50 (Plasmodium falciparum [3]): 3.76 nM
selectivity ratio [4]: > 7490
t1/2 [6]: 2.9965 h
Activity (Plasmodium yoelii [7]): inactive
IC50 (Plasmodium falciparum [8]): 3.08 nM
IC50 (Plasmodium falciparum [9]): 4.47 nM
selectivity ratio [10]: > 7490
IC50 (Plasmodium falciparum [11]): 2.67 nM
Activity (Plasmodium yoelii [14]): 46.37%
IC50 (Plasmodium falciparum [12]): 13.1 nM
IC50 at 72 h [13]: 20000 nM

Structure (SMILES): Cn1cc(CNCC2CCN(c3ncc(C(=O)NO)cn3)CC2)c2ccccc21 [QUISINOSTAT]
Activity [15]: Toxic
IC50 at 72 h [2]: 60 nM
IC50 (Plasmodium falciparum [3]): 2.52 nM
Activity (Plasmodium falciparum [16]): 100%
IC50 [17]: 5.59 nM
Activity (Plasmodium falciparum [18]): Active
t1/2 [6]: 10.5 h
Activity (Plasmodium falciparum [19]): Active
inhibition (Plasmodium falciparum [20]): Active
IC50 (Plasmodium falciparum [8]): 7.09 nM
IC50 (Plasmodium falciparum [9]): 1.75 nM
Activity (Plasmodium falciparum [21]): Active
IC50 (Plasmodium falciparum [11]): 4.01 nM
Activity (Plasmodium falciparum [22]): Active
Activity (Plasmodium berghei): inactive
inhibition (Plasmodium falciparum [23]): Active
CL/F [24]: 462 mL/min/kg
Activity [25]: Toxic
Tmax [26]: 4.8 min
Activity (Plasmodium falciparum [27]): Active
Activity (Plasmodium yoelii [28]): 0.05%
IC50 [29]: 19.1 nM
inhibition (Plasmodium falciparum [30]): Active
Cmax [31]: 89 ng/mL
IC50 at 72 h [13]: 30 nM
inhibition (Plasmodium falciparum [32]): Active
Activity [33]: Toxic
Vd/F [34]: 245 L/kg
Activity (Plasmodium falciparum [35]): Dose dependent effect
inhibition (Plasmodium falciparum [36]): Active

IC50 [37]: 5440 nM
Structure (SMILES): Cc1ccc(C(=O)Nc2ccc(S(=O)(=O)O)c3cc(S(=O)(=O)O)cc(S(=O)(=O)O)c23)cc1NC(=O)c1cccc(NC(=O)Nc2cccc(C(=O)Nc3cc(C(=O)Nc4ccc(S(=O)(=O)O)c5cc(S(=O)(=O)O)cc(S(=O)(=O)O)c45)ccc3C)c2)c1 [SURAMIN]
